Here are results for twelve compounds from ChEMBL document CHEMBL1201862, “PubChem BioAssay data set” (2004).

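Exposure lasted 48 hours, with cells grown in 96-well plates and compounds tested at five concentrations. GI50 = concentration required for 50% inhibition of growth.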 Calls of active or inactive are those of the source. No stated cut-off is given here; in the data, active = GI50 up to about 1.1 µM and inactive = higher.

Test systems include HOP-92; SK-MEL-2; ACHN; OVCAR-3; Malme-3M; OVCAR-5; UACC-62; MOLT-4; SR; SF-539; HCT-15; LXFL 529; SNB-78; COLO 205; OVCAR-4; HCT-116; NCI-H226; SNB-75.
Common to all, as to test: NCI tumour cell line growth inhibition, 48 h

Consider `Nc1ccc(C(=O)N/C(=C\C=C\c2ccco2)c2nc3c(O)nc(S)nc3[nH]2)cc1`, for which the GI50 with HOP-92, with SK-MEL-2, in the assay with ACHN, in the assay on OVCAR-3, in the assay with Malme-3M and in the assay with OVCAR-5 was > 100 µM (inactive) throughout. The GI50 in the assay on UACC-62 was > 10 µM (inactive); in the assay on MOLT-4, > 100 µM (inactive); in the assay on SR, > 100 µM (inactive); in the assay with SF-539 it was > 100 µM (inactive); with HCT-15, above 100 µM; with LXFL 529, > 100 µM (inactive). Moreover, the GI50 in the assay with SNB-78, in the assay on COLO 205 and in the assay on OVCAR-4 was > 100 µM (inactive) in each case.
Consider `CC(=O)NC(CCCN(Cc1ccccc1)C(=O)N(C)N=O)C(=O)NCc1ccccc1` (stereo unspecified), for which the GI50 in the assay on HOP-92, with SK-MEL-2, with HCT-116, in the assay on ACHN, in the assay with OVCAR-3 and in the assay with NCI-H226 was > 100 µM (inactive) each time. Moreover, the GI50 was > 100 µM (inactive) in the assay with Malme-3M; > 100 µM (inactive) in the assay on OVCAR-5; > 100 µM (inactive) in the assay with UACC-62; 57.1 µM (inactive) with MOLT-4; > 100 µM (inactive) with SF-539; above 100 µM in the assay with HCT-15. Also, the GI50 was > 100 µM (inactive) in the assay on LXFL 529; > 100 µM (inactive) in the assay on SNB-78; > 100 µM (inactive) in the assay with COLO 205; 27.4 µM (inactive) in the assay on SNB-75; > 100 µM (inactive) in the assay with OVCAR-4.
As to `COC1CC(OS(=O)(=O)c2ccc(C)cc2)C(OS(=O)(=O)c2ccc(C)cc2)C(COS(=O)(=O)c2ccc(C)cc2)O1` (stereo unspecified), the GI50 with SK-MEL-2 is 6.85 µM (inactive); with HCT-116, 14.5 µM (inactive); in the assay with ACHN it was 2.9 µM (inactive); in the assay on OVCAR-3 it was 1.89 µM (inactive); in the assay on NCI-H226 it was 3.23 µM (inactive); in the assay on Malme-3M it was 2.39 µM (inactive). The GI50 with OVCAR-5 is 11.3 µM (inactive); in the assay on UACC-62, 5.61 µM (inactive); in the assay on MOLT-4, > 100 µM (inactive); in the assay with SR it was 6.12 µM (inactive); with SF-539, 1.88 µM (inactive); in the assay on HCT-15 it was 5.35 µM. Besides, the GI50 with LXFL 529 was 5.77 µM (inactive); in the assay on SNB-78 it was 5.46 µM (inactive); in the assay on COLO 205 it was 37.9 µM (inactive); with SNB-75, 0.535 µM (active); in the assay on OVCAR-4, 0.336 µM (active).
In the case of `Cc1ccc(C[P+]2(c3ccccc3)CCCCC2)cc1.[O-][Cl+3]([O-])([O-])[O-]`, the GI50 was 30.9 µM (inactive) in the assay on SK-MEL-2; 1.33 µM (inactive) in the assay with HCT-116; 81.7 µM (inactive) in the assay on ACHN; 10 µM (inactive) in the assay with OVCAR-3; 48.1 µM (inactive) with NCI-H226; 25.5 µM (inactive) with Malme-3M. For the same compound, the GI50 was 55.2 µM (inactive) in the assay with OVCAR-5; 23 µM (inactive) with UACC-62; 33 µM (inactive) with MOLT-4; 23.1 µM (inactive) in the assay on SR; 25 µM (inactive) with SF-539; 51.6 µM in the assay on HCT-15. Moreover, the GI50 with LXFL 529 is 14 µM (inactive); with SNB-78, 25.9 µM (inactive); in the assay with COLO 205 it was 14 µM (inactive); in the assay with SNB-75, 24.4 µM (inactive); in the assay on OVCAR-4, 41.4 µM (inactive).
In the case of `COc1ccc2ccc([Se]c3ccc4ccc(OC)cc4c3)cc2c1`, the GI50 in the assay on HOP-92 is > 100 µM (inactive); with SK-MEL-2, > 100 µM (inactive); with HCT-116 it was 58.1 µM (inactive); with ACHN it was 29.2 µM (inactive); in the assay on OVCAR-3, > 100 µM (inactive); in the assay with NCI-H226, 63.1 µM (inactive). For the same compound, the GI50 in the assay with Malme-3M is > 100 µM (inactive); with UACC-62 it was > 100 µM (inactive); with MOLT-4 it was 63.2 µM (inactive); in the assay on SF-539, > 100 µM (inactive); in the assay on HCT-15, above 100 µM; in the assay on LXFL 529, > 100 µM (inactive). The GI50 with SNB-78 is 53.6 µM (inactive); with COLO 205 it was > 100 µM (inactive); in the assay on SNB-75 it was 26.6 µM (inactive); with OVCAR-4, 20.6 µM (inactive).
On to `O=C(Cc1nc2ccccc2o1)C(=O)Nc1ccccc1C(F)(F)F`, for which the GI50 in the assay with HOP-92, in the assay with SK-MEL-2, in the assay on HCT-116, in the assay on ACHN, in the assay on OVCAR-3 and with NCI-H226 was > 100 µM (inactive) throughout. For the same compound, the GI50 with Malme-3M is > 100 µM (inactive); in the assay with OVCAR-5 it was > 100 µM (inactive); in the assay on UACC-62, > 100 µM (inactive); in the assay with SF-539, > 100 µM (inactive); in the assay with HCT-15 it was above 100 µM; in the assay with LXFL 529, > 100 µM (inactive). Further, the GI50 in the assay with SNB-78 was > 100 µM (inactive); in the assay on COLO 205, > 100 µM (inactive); with SNB-75, 63.1 µM (inactive); in the assay with OVCAR-4, > 100 µM (inactive).
In the case of `COc1cc2c(c3c1C=CCO3)C(=O)c1ccccc1C2=O`, the GI50 is > 100 µM (inactive) in the assay with HOP-92; > 100 µM (inactive) in the assay with SK-MEL-2; 33.3 µM (inactive) in the assay with HCT-116; 34.2 µM (inactive) in the assay with ACHN; 42.8 µM (inactive) in the assay on OVCAR-3; 32.2 µM (inactive) in the assay on NCI-H226. The GI50 in the assay on Malme-3M was > 100 µM (inactive); in the assay with OVCAR-5 it was > 100 µM (inactive); in the assay on UACC-62 it was 47.4 µM (inactive); in the assay on MOLT-4, 23.6 µM (inactive); in the assay with SR it was 28 µM (inactive); in the assay on SF-539 it was 36.1 µM (inactive). In addition, the GI50 in the assay on HCT-15 was 29.6 µM; in the assay on LXFL 529, 31.2 µM (inactive); in the assay with SNB-78, > 100 µM (inactive); with COLO 205, 19.6 µM (inactive); in the assay with SNB-75, 51.1 µM (inactive).
In the case of `O=C1NC2OC(CO)C(O)C(O)C2O1` (stereo unspecified), the GI50 in the assay on HOP-92, with SK-MEL-2, in the assay on HCT-116, in the assay on ACHN, with OVCAR-3 and with Malme-3M was > 100 µM (inactive) throughout. For the same compound, the GI50 in the assay with OVCAR-5 was > 100 µM (inactive); in the assay with UACC-62 it was > 100 µM (inactive); in the assay with MOLT-4 it was > 100 µM (inactive); in the assay with SR, > 100 µM (inactive); in the assay on SF-539, > 100 µM (inactive); in the assay with HCT-15, above 100 µM. The GI50 in the assay with LXFL 529, with SNB-78, in the assay on COLO 205, with SNB-75 and in the assay on OVCAR-4 was > 100 µM (inactive) each time.
Regarding `FC1OC2OC1C(OCc1ccccc1)C(OCc1ccccc1)C2OCc1ccccc1` (stereo unspecified), the GI50 is 15.3 µM (inactive) in the assay on HOP-92; 71.8 µM (inactive) with SK-MEL-2; 25.3 µM (inactive) in the assay on HCT-116; 36.8 µM (inactive) in the assay on OVCAR-3; 77.3 µM (inactive) in the assay on NCI-H226; 48.3 µM (inactive) with Malme-3M. Besides, the GI50 is > 100 µM (inactive) in the assay on OVCAR-5; 30.1 µM (inactive) in the assay with UACC-62; 22.8 µM (inactive) in the assay on MOLT-4; > 100 µM (inactive) with SF-539; 35.7 µM in the assay with HCT-15; 34 µM (inactive) in the assay with LXFL 529. Besides, the GI50 was 61.1 µM (inactive) in the assay on SNB-78, 61.9 µM (inactive) in the assay on COLO 205, 34.7 µM (inactive) in the assay with SNB-75 and 34.1 µM (inactive) in the assay on OVCAR-4.
For the compound `CCc1cccc(C)c1NC(=O)CCc1nnc2s/c(=C\c3cccc4ccccc34)c(=O)n12`, the GI50 with HOP-92 was > 100 µM (inactive); in the assay on SK-MEL-2 it was > 100 µM (inactive); in the assay on HCT-116, 57.1 µM (inactive); in the assay with ACHN, > 100 µM (inactive); in the assay on OVCAR-3, 78 µM (inactive); in the assay with NCI-H226, > 100 µM (inactive). Moreover, the GI50 in the assay with Malme-3M is > 100 µM (inactive); with OVCAR-5 it was > 100 µM (inactive); with UACC-62, > 100 µM (inactive); with MOLT-4, 17.9 µM (inactive); in the assay on SF-539, > 100 µM (inactive); with HCT-15, 89.1 µM. For the same compound, the GI50 is 73.3 µM (inactive) in the assay with LXFL 529; > 100 µM (inactive) with SNB-78; > 100 µM (inactive) with COLO 205; > 100 µM (inactive) with SNB-75; > 100 µM (inactive) in the assay on OVCAR-4.
As to `Cc1ccc(SSc2ccc(C)cc2C(=O)O)c(C(=O)O)c1`, the GI50 with HOP-92, in the assay with SK-MEL-2, in the assay on ACHN, with NCI-H226, with Malme-3M and with OVCAR-5 was > 100 µM (inactive) throughout. Further, the GI50 in the assay with UACC-62, in the assay with MOLT-4, with SR, with SF-539, in the assay on LXFL 529 and in the assay with SNB-78 was > 100 µM (inactive) each time. The GI50 in the assay with COLO 205 and in the assay on OVCAR-4 was > 100 µM (inactive) throughout.
Consider `CCSCN(C)c1nc(N(C)C)nc(N(C)C)n1`, for which the GI50 in the assay with HOP-92 is 49.2 µM (inactive); with SK-MEL-2, > 100 µM (inactive); with HCT-116, 54.7 µM (inactive); with ACHN, > 100 µM (inactive); in the assay with OVCAR-3 it was 38.3 µM (inactive); in the assay on Malme-3M, 34.3 µM (inactive). In addition, the GI50 with OVCAR-5 is > 100 µM (inactive); with UACC-62 it was 40.4 µM (inactive); with MOLT-4, 46.8 µM (inactive); in the assay with SR it was 30 µM (inactive); in the assay on SF-539, 36.1 µM (inactive); with HCT-15 it was 42.5 µM. Besides, the GI50 in the assay on LXFL 529 is 45.3 µM (inactive); in the assay on SNB-78, > 100 µM (inactive); in the assay with COLO 205, 75.2 µM (inactive); with SNB-75, 59 µM (inactive); in the assay on OVCAR-4, 72.3 µM (inactive).
